Experiments:
Aspergillus flavus = experiment: Disk diffusion assay (MEC and zone of inhibition); type: cell-based; conditions: for ZOI (zone of inhibition of fungal growth calculated for each MEC): at the MEC; for ZOI (zone of inhibition of fungal growth calculated for each MEC) / MEC (minimum effective concentration): 24 hours of incubation; for MEC (minimum effective concentration): disk diffusion
Aspergillus fumigatus = experiment: Disk diffusion assay (MEC and zone of inhibition); type: cell-based; conditions: for ZOI (zone of inhibition of fungal growth calculated for each MEC): at the MEC; for ZOI (zone of inhibition of fungal growth calculated for each MEC) / MEC (minimum effective concentration): 24 hours of incubation; for MEC (minimum effective concentration): disk diffusion

Structure (SMILES) | ZOI (zone of inhibition of fungal growth calculated for each MEC) (Aspergillus flavus) [mm] | MEC (minimum effective concentration) (Aspergillus flavus) [µg/mL] | ZOI (zone of inhibition of fungal growth calculated for each MEC) (Aspergillus fumigatus) [mm] | MEC (minimum effective concentration) (Aspergillus fumigatus) [µg/mL] | antifungal activity in disk diffusion assay (Aspergillus flavus) | antifungal activity in disk diffusion assay (Aspergillus fumigatus)
CC[C@H](C)C[C@H](C)CCCCCCCCC(=O)N[C@H]1C[C@@H](O)[C@@H](NCCN)NC(=O)[C@@H]2[C@@H](O)CCN2C(=O)[C@H]([C@H](O)CCN)NC(=O)[C@H]([C@H](O)[C@@H](O)c2ccc(O)cc2)NC(=O)[C@@H]2C[C@@H](O)CN2C(=O)[C@H]([C@@H](C)O)NC1=O [Casponfungin] | 0.7 | 2.5 | 0.7 | 2.5 | – | –
OC(Cn1cncn1)(Cn1cncn1)c1ccc(F)cc1F [Fluconazole] | 0 | 0 | 0 | 0 | inactive | inactive
CCC(C)n1ncn(-c2ccc(N3CCN(c4ccc(OCC5COC(Cn6cncn6)(c6ccc(Cl)cc6Cl)O5)cc4)CC3)cc2)c1=O (centres unmarked) [Itraconazole] | 1.7 | 0.5 | 1.7 | 1.0 | – | –

From patent publication US7375088B2, “Polyene polyketides, processes for their production and their use as a pharmaceutical” (Thallion Pharmaceuticals Inc., priority 2003, dated 2008)
